Here are results for three compounds from publication PMC12217461 (Antimicrobial Agents and Chemotherapy, 2025).

Common to all, as to format: cell-based
The test system of assay [1] is Escherichia coli E. coli 7 IMP. Briefly: microbe, parasite or virus in culture. To be noted: E.COLI7IMP, read-out: Minimal inhibitory concentration. The protocol: (§1) Most isolates and their respective β-lactamase content were characterized by whole-genome sequencing.
(§2) To assess the inhibitory potency of XER, susceptibility testing was performed by broth microdilution method, determining the minimal inhibitory concentrations (MICs) of different antibiotics or antibiotic plus β-lactamase inhibitor combinations, including cefepime (FEP), imipenem (IPM), meropenem (MEM), and their combinations with XER (FEP-XER, IPM-XER, and MEM-XER). All data obtained with XER-based combinations were compared with data with TAN-based combinations, FEP-TAN, IPM-TAN, and MEM-TAN ([16]). FEP was purchased from Sigma-Aldrich (Saint-Louis, USA), whereas MEM was from HuiChem (Shanghai, China). […] MICs were determined in triplicate in cation-adjusted Mueller-Hinton (MH) broth (Bio-Rad, Marnes-la-Coquette, France) according to the CLSI guidelines ([53]). The results were interpreted according to the decrease in MIC value for the same antibiotic or combination of the corresponding recombinant strain producing the MBL enzyme. […] In a recent phase I clinical evaluation, XER was combined with cefiderocol. However, as this latter β-lactam substrate is known to be poorly hydrolyzed by IMP enzymes, it was not considered for the evaluation of XER inhibitory activity in this study. Instead, carbapenems were used as a substrate to evaluate the β-lactamase IMP activity in the presence or absence of XER and TAN, as it was deemed more specific for the IMP carbapenemase activity.

The subject of assay [2] is Klebsiella pneumoniae SMART 1133. Briefly: microbe, parasite or virus in culture. To be noted: SMART1133, IMP-1, CTX-M-2, TAN/XER fixed at 4 µg/mL, XER 8 µg/mL in MEM-XER, read-out: Minimal inhibitory concentration. The protocol:
as §1, §2

Assay [3] concerns Klebsiella pneumoniae SMART 1137. Put plainly: microbe, parasite or virus in culture. To be noted: SMART1137, read-out: Minimal inhibitory concentration. As to the method:
as §1, §2

Assay [4] concerns Citrobacter freundii SMART 958. Briefly: microbe, parasite or virus in culture. To be noted: SMART958, IMP-1, OXA-142, TAN/XER fixed at 4 µg/mL, XER 8 µg/mL in MEM-XER, read-out: Minimal inhibitory concentration. The protocol:
as §1, §2

Assay [5] deals with Klebsiella pneumoniae SMART 651. Put plainly: microbe, parasite or virus in culture. To be noted: SMART651, read-out: Minimal inhibitory concentration. As to the method: as §1, §2
Assay [6] has as its system Serratia marcescens SMART 2558. Put plainly: microbe, parasite or virus in culture. To be noted: SMART2558, IMP-8, CTX-M-3, TAN/XER fixed at 4 µg/mL, XER 8 µg/mL in MEM-XER, read-out: Minimal inhibitory concentration. As to the method: as §1, §2
The next assay relates to Serratia marcescens SM1. Put plainly: microbe, parasite or virus in culture. To be noted: IMP-11, TAN/XER fixed at 4 µg/mL, XER 8 µg/mL in MEM-XER, read-out: Minimal inhibitory concentration. As to the method: as §1, §2
Assay [7] has as its system Pseudomonas aeruginosa CC02-010. Briefly: microbe, parasite or virus in culture. To be noted: CC02010, IMP-7, TAN/XER fixed at 4 µg/mL, XER 8 µg/mL in MEM-XER, read-out: Minimal inhibitory concentration. The protocol: as §1, §2
The test system of assay [8] is Enterobacter hormaechei subsp. steigerwaltii SMART 1276. Briefly: microbe, parasite or virus in culture. To be noted: read-out: Minimal inhibitory concentration. The protocol: as §1, §2
The subject of assay [9] is Klebsiella pneumoniae Kp 5 IMP. Put plainly: microbe, parasite or virus in culture. To be noted: KP5IMP, read-out: Minimal inhibitory concentration. As to the method: as §1, §2
The test system of assay [10] is Pseudomonas aeruginosa PA12. Put plainly: microbe, parasite or virus in culture. To be noted: IMP-13, TAN/XER fixed at 4 µg/mL, XER 8 µg/mL in MEM-XER, read-out: Minimal inhibitory concentration. As to the method: as §1, §2
In assay [11] the test system is Klebsiella pneumoniae SMART 878. Put plainly: microbe, parasite or virus in culture. To be noted: for MIC: Klebsiella pneumoniae, SMART878, read-out: Minimal inhibitory concentration. The protocol: as §1, §2
In assay [12] the test system is Pseudomonas aeruginosa PA15. Briefly: microbe, parasite or virus in culture. To be noted: IMP-19, TAN/XER fixed at 4 µg/mL, XER 8 µg/mL in MEM-XER, read-out: Minimal inhibitory concentration. As to the method: as §1, §2
Assay [13] concerns Pseudomonas aeruginosa PA10. Put plainly: microbe, parasite or virus in culture. To be noted: IMP-2, TAN/XER fixed at 4 µg/mL, XER 8 µg/mL in MEM-XER, read-out: Minimal inhibitory concentration. The protocol:
as §1, §2

The subject of assay [14] is Pseudomonas aeruginosa C7. Put plainly: microbe, parasite or virus in culture. To be noted: IMP-7, TAN/XER fixed at 4 µg/mL, XER 8 µg/mL in MEM-XER, read-out: Minimal inhibitory concentration. The protocol:
as §1, §2

The subject of assay [15] is Pseudomonas aeruginosa PA13. Briefly: microbe, parasite or virus in culture. To be noted: IMP-15, TAN/XER fixed at 4 µg/mL, XER 8 µg/mL in MEM-XER, read-out: Minimal inhibitory concentration. The protocol:
as §1, §2

Assay [16] relates to Enterobacter hormaechei (cluster III) SMART 271. Put plainly: microbe, parasite or virus in culture. To be noted: read-out: Minimal inhibitory concentration. As to the method:
as §1, §2

For a further assay, the system named is E. coli IMP-7. Put plainly: MIC broth microdilution, recombinant E. coli. To be noted: Escherichia coli, IMP7; IMP-7-like; TAN/XER fixed at 4 µg/mL, XER 8 µg/mL in MEM-XER; read-out: Minimal inhibitory concentration.
Source text: (§3) Genes encoding different acquired IMP-like enzymes suspected to be resistant to XER (blaIMP-6, blaIMP-7, blaIMP-10, blaIMP-14, blaIMP-26, blaIMP-34, and blaIMP-59) were amplified by PCR, and corresponding amplicons were cloned into plasmid pUCP24 and expressed in E. coli TOP10. The following recombinant E. coli strains producing IMP-1, IMP-4, IMP-19, and NDM-1 were used from a previous study ([16]). […] For that purpose, a list of primers was designed and provided as Table S1. […] The nomenclature used in this study was according to the BBL sequence numbering ([52]).
as §2
In general terms: Dilution methods test growth across graded concentrations, often in twofold steps.

For another assay, the system named is E. coli IMP-34. Put plainly: MIC broth microdilution, recombinant E. coli. To be noted: Escherichia coli, IMP34; IMP-1-like, E126G; TAN/XER fixed at 4 µg/mL, XER 8 µg/mL in MEM-XER; read-out: Minimal inhibitory concentration.
Source text: as §3, §2

As to `CO/N=C(\C(=O)N[C@@H]1C(=O)N2C(C(=O)[O-])=C(C[N+]3(C)CCCC3)CS[C@H]12)c1csc(N)n1` [FEP, cefepime], the MIC in assay [1] is over 256 µg/mL; in assay [2], over 256 µg/mL; in assay [3] it was over 256 µg/mL; in assay [4], 32 µg/mL; in assay [5], 64 µg/mL; in assay [6], 32 µg/mL. The MIC is 4 µg/mL with Serratia marcescens SM1; over 256 µg/mL in [7]; over 256 µg/mL in [8]; 256 µg/mL in [9]; 128 µg/mL in [10]; 256 µg/mL in assay [11]. The MIC in [12] was over 256 µg/mL; in assay [13] it was over 256 µg/mL; in assay [14], over 256 µg/mL; in assay [15], 128 µg/mL.
`C[C@@H](O)[C@H]1C(=O)N2C(C(=O)O)=C(SCCN=CN)C[C@H]12` [IPM, imipenem]: the MIC in assay [1] is 0.5 µg/mL; in assay [2], 128 µg/mL; in assay [3], 2 µg/mL; in [4] it was 0.5 µg/mL; in assay [5] it was 1 µg/mL; in assay [6], at most 0.25 µg/mL. The MIC was at most 0.25 µg/mL in the assay with Serratia marcescens SM1; 128 µg/mL in [7]; 0.5 µg/mL in assay [8]; at most 0.25 µg/mL in [9]; 8 µg/mL in assay [10]; at most 0.25 µg/mL in [11]. For the same compound, the MIC came to 256 µg/mL in [12]; 32 µg/mL in assay [13]; 128 µg/mL in [14]; 0.5 µg/mL in assay [16]; 256 µg/mL in assay [15]; 0.25 µg/mL in the assay with E. coli IMP-7. Moreover, in the assay with E. coli IMP-34, the MIC is 0.5 µg/mL.
As for `C[C@@H](O)[C@H]1C(=O)N2C(C(=O)O)=C(S[C@@H]3CN[C@H](C(=O)N(C)C)C3)[C@H](C)[C@H]12` [MEM, meropenem], the MIC amounted to 1 µg/mL in assay [1]; 64 µg/mL in [2]; 128 µg/mL in assay [3]; 4 µg/mL in [4]; 8 µg/mL in assay [5]; 0.25 µg/mL in assay [6]. The MIC in the assay on Serratia marcescens SM1 worked out at 2 µg/mL; in assay [7] it was 256 µg/mL; in assay [8] it was 2 µg/mL; in [9] it was 0.5 µg/mL; in assay [10] it was 16 µg/mL; in assay [11], 4 µg/mL. In addition, the MIC in assay [12] is 64 µg/mL; in assay [13], 32 µg/mL; in [14], 256 µg/mL; in [16], 0.5 µg/mL; in assay [15], 64 µg/mL; in the assay with E. coli IMP-7, 2 µg/mL. The MIC with E. coli IMP-34 was 2 µg/mL. Also, the Minimal inhibitory concentration in assay [11] (IMP-26, CTX-M-15, OXA-1, TEM-1 like, TAN/XER fixed at 4 µg/mL, XER 8 µg/mL in MEM-XER) came to 1 µg/mL.
